Experimental findings from patent US20250195530A1, “POLQ INHIBITORS” (ASTRAZENECA AB, priority 2022, published 2025) are described below.

One experiment concerns DLD-1 BRCA2−/− cells. In words: Homologous recombination synthetic lethal inhibition of proliferation, DLD-1 BRCA2-/- (Cell Titre Glo 3D). The format is cell-based. The following applies: for IC50: Homo sapiens. In short, it runs like this: (§1)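 Cells are seeded in RPMI 1640 (phenol red free, 10% FBS, GlutaMAX) onto pre-dosed compound (10 μM to 0.51 nM, three-fold). Plates are incubated at 37 °C, and medium plus compound are refreshed on day 6. Viability is read by CellTiter-Glo 3D at day 7 (DLD-1) or day 12 (DLD-1 BRCA2−/−), and the IC50 is fitted.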

The subject of a further experiment is DLD-1 cells. In words: Inhibition of proliferation, DLD-1 BRCA2 wt control (Cell Titre Glo 3D). To be noted: for IC50: Homo sapiens. The format is cell-based. In short, it runs like this:
as §1

[1] abbreviates: DLD-1, 288 h, DLD-1 BRCA2−/− cells, 12 days, read-out: POLQ PD Prolif Lumin BRCA2 −/− mean pIC50 (converted).
Setting [2] is: DLD-1, 168 h, DLD-1 BRCA2 wt cells, 7 days, read-out: POLQ PD Prolif Lumin DLD1 mean pIC50 (converted).
[3] abbreviates: DLD-1, DLD-1 BRCA2-/- proliferation, column head only partly shown, read-out: POLQ PD Prolif Lumin (converted).
[4] abbreviates: DLD-1, DLD-1 BRCA2 wt control proliferation, column head only partly shown, read-out: POLQ PD Prolif Lumin (converted).
[5] abbreviates: DLD-1, DLD-1 BRCA2 −/− cells, mean, read-out: POLQ PD Prolif Lumin BRCA2 −/− mean pIC50 (converted).
[6] abbreviates: DLD-1, DLD1 BRCA2 wt cells, mean, read-out: POLQ PD Prolif Lumin DLD1 mean PIC50 (converted).
[7] abbreviates: DLD-1, first proliferation column (c5), taken as DLD-1 BRCA2-/-, read-out: POLQ PD Prolif Lumin (converted).
The mark [8] stands for this setting: DLD-1, second proliferation column (c6), taken as DLD-1 BRCA2 wt, read-out: POLQ PD Prolif Lumin (converted).
[9] abbreviates: DLD-1, first proliferation column, DLD-1 BRCA2-/-, read-out: POLQ PD Prolif Lumin (converted).
The mark [10] stands for this setting: DLD-1, second proliferation column, DLD-1 BRCA2 wt control, read-out: POLQ PD Prolif Lumin (converted).
Setting [11] is: DLD-1, 288 h, DLD-1 BRCA2−/−, 12 days, Cell Titre Glo 3D, read-out: POLQ PD Prolif Lumin BRCA2 −/− Mean pIC50 (converted).
[12] abbreviates: DLD-1, 168 h, DLD-1 (BRCA2 wt control), 7 days, Cell Titre Glo 3D, read-out: POLQ PD Prolif Lumin DLD1 Mean pIC50 (converted).
The mark [13] stands for this setting: DLD-1, first proliferation column (c5), DLD-1 BRCA2-/-, read-out: POLQ PD Prolif Lumin (converted).
Setting [14] is: DLD-1, second proliferation column (c6), DLD-1 BRCA2 wt control, read-out: POLQ PD Prolif Lumin (converted).

Like-named read-outs stand apart in the source and are kept apart here.

Turning to `CC1(Oc2ncnc3c2nc(-c2ccc(OCCN4CCNCC4)cc2Cl)n3Cc2ccc(Cl)cn2)CC1` [Example K3, 8-(2-chloro-4-(2-(piperazin-1-yl)ethoxy)phenyl)-9-((5-chloropyridin-2-yl)methyl)-6-(1-methylcyclopropoxy)-9H-purine], the IC50 with DLD-1 BRCA2−/− cells (setting [1]) was 1260 nM; with DLD-1 cells (setting [2]), > 10000 nM.

Take `CC1(Oc2ncnc3c2nc(-c2ccc(OCCN4CCNCC4)cc2Cl)n3Cc2nccs2)CC1` [Example K4, 2-((8-(2-chloro-4-(2-(piperazin-1-yl)ethoxy)phenyl)-6-(1-methylcyclopropoxy)-9H-purin-9-yl)methyl)thiazole]: the IC50 was 3980 nM in the experiment with DLD-1 BRCA2−/− cells (setting [1]) and > 10000 nM in the experiment on DLD-1 cells (setting [2]).

As to `CC(CCOc1ccc(-c2nc3c(OC4(C)CC4)ncnc3n2Cc2cccc(I)c2)c(Cl)c1)C(=O)O` (racemic) [Example T285, 4-(3-chloro-4-(9-(3-iodobenzyl)-6-(1-methylcyclopropoxy)-9H-purin-8-yl)phenoxy)-2-methylbutanoic acid], the results for the IC50 in the experiment on DLD-1 BRCA2−/− cells (setting [3]) and with DLD-1 cells (setting [4]) were 251 nM and > 10000 nM, respectively.

Regarding `Cc1ccnc(Cn2c(-c3ccc(CN4CC(O)C4)cc3Cl)nc3c(OC4(C)CC4)ncnc32)c1` [Example T209, 1-(3-chloro-4-(6-(1-methylcyclopropoxy)-9-((4-methylpyridin-2-yl)methyl)-9H-purin-8-yl)benzyl)azetidin-3-ol], the results for the IC50 in the experiment with DLD-1 BRCA2−/− cells (setting [3]) and in the experiment with DLD-1 cells (setting [4]) were 631 nM and > 10000 nM, respectively.

Turning to `Cc1ccnc(Cn2c(-c3ccc(S(N)(=O)=O)cc3Cl)nc3c(OC4(C)CC4)ncnc32)c1` [Example T9, 3-chloro-4-(6-(1-methylcyclopropoxy)-9-((4-methylpyridin-2-yl)methyl)-9H-purin-8-yl)benzenesulfonamide], the IC50 is 501 nM with DLD-1 BRCA2−/− cells (setting [5]) and > 10000 nM with DLD-1 cells (setting [6]).

`CC1(Oc2ncnc3c2nc(-c2ccc(OCCN4CC(O)C4)cc2Cl)n3Cc2cc(C(F)F)ccn2)CC1` [Example T307, 1-(2-(3-chloro-4-(9-((4-(difluoromethyl)pyridin-2-yl)methyl)-6-(1-methylcyclopropoxy)-9H-purin-8-yl)phenoxy)ethyl)azetidin-3-ol]: the IC50 with DLD-1 BRCA2−/− cells (setting [7]) was 1580 nM; in the experiment with DLD-1 cells (setting [8]), > 10000 nM.

As to `Cc1ccnc(Cn2c(-c3ccc(CC(=O)N4CCC(O)CC4)cc3Cl)nc3c(OC4(C)CC4)ncnc32)c1` [Example T574, 2-(3-chloro-4-(6-(1-methylcyclopropoxy)-9-((4-methylpyridin-2-yl)methyl)-9H-purin-8-yl)phenyl)-1-(4-hydroxypiperidin-1-yl)ethan-1-one], the IC50 in the experiment with DLD-1 BRCA2−/− cells (setting [9]) is 1000 nM; in the experiment with DLD-1 cells (setting [10]), > 10000 nM.

Regarding `COc1ccc(Cl)cc1Cn1c(-c2cccc(O[C@H]3CC[C@@H](C(=O)O)CC3)c2Cl)nc2c(OC3(C)CC3)ncnc21` [Example U50, (1s,4s)-4-(2-chloro-3-(9-(5-chloro-2-methoxybenzyl)-6-(1-methylcyclopropoxy)-9H-purin-8-yl)phenoxy)cyclohexane-1-carboxylic acid], the “POLQ PD Prolif Lumin BRCA2 −/− mean pIC50” value in the experiment on DLD-1 BRCA2−/− cells (DLD-1 BRCA2 −/−, mean) was found to be 7.6. The “POLQ PD Prolif Lumin DLD1 mean pIC50” value in the experiment with DLD-1 cells (DLD1 BRCA2 wt, mean) was <5.0.

Turning to `CC(=O)NCCCOc1ccc(-c2nc3cc(OC(C)C)ccc3n2Cc2ccccc2)c(Cl)c1` [Example A3, N-(3-(4-(1-benzyl-5-isopropoxy-1H-benzo[d]imidazol-2-yl)-3-chlorophenoxy)propyl)acetamide], the IC50 is 501 nM with DLD-1 BRCA2−/− cells (setting [1]) and 5010 nM with DLD-1 cells (setting [2]).

For `Cc1ccnc(Cn2c(-c3ccc(NC(=O)N4CC[C@@H](O)C4)cc3Cl)nc3c(OC4(C)CC4)ncnc32)c1` [Example T342, (R)-N-(3-chloro-4-(6-(1-methylcyclopropoxy)-9-((4-methylpyridin-2-yl)methyl)-9H-purin-8-yl)phenyl)-3-hydroxypyrrolidine-1-carboxamide], the IC50 is > 3980 nM with DLD-1 BRCA2−/− cells (setting [7]) and > 10000 nM with DLD-1 cells (setting [8]).

On to `C[C@H]1CN(CCOc2ccc(-c3nc4c(OC5(C)CC5)ncnc4n3Cc3ccccc3)c(Cl)c2)CCN1` [Example R3, (S)-9-benzyl-8-(2-chloro-4-(2-(3-methylpiperazin-1-yl)ethoxy)phenyl)-6-(1-methylcyclopropoxy)-9H-purine], for which the values for the IC50 in the experiment on DLD-1 BRCA2−/− cells (setting [1]) and in the experiment on DLD-1 cells (setting [2]) were 63.1 nM and 3160 nM, respectively.

`Cc1ccnc(Cn2c(-c3ccc(OC4CN(C(=O)CO)C4)cc3Cl)nc3c(OC4(C)CC4)ncnc32)c1` [Example 39, 1-(3-(3-Chloro-4-(6-(1-methylcyclopropoxy)-9-((4-methylpyridin-2-yl)methyl)-9H-purin-8-yl)phenoxy)azetidin-1-yl)-2-hydroxyethan-1-one]: the IC50 in the experiment on DLD-1 BRCA2−/− cells (setting [11]) is 158 nM; in the experiment on DLD-1 cells (setting [12]), > 10000 nM.

Consider `Cc1ccnc(Cn2c(-c3ccc(OCCS(C)(=O)=O)cc3Cl)nc3c(OC4(C)CC4)ncnc32)c1` [Example T129, 8-(2-chloro-4-(2-(methylsulfonyl)ethoxy)phenyl)-6-(1-methylcyclopropoxy)-9-((4-methylpyridin-2-yl)methyl)-9H-purine], for which the IC50 was 158 nM in the experiment with DLD-1 BRCA2−/− cells (setting [13]) and > 10000 nM in the experiment on DLD-1 cells (setting [14]).

Take `Cc1ccnc(Cn2c(-c3ccc(OCCN4CCCC4)cc3Cl)nc3c(OC4(C)CC4)ncnc32)c1` [Example T507, 8-(2-chloro-4-(2-(pyrrolidin-1-yl)ethoxy)phenyl)-6-(1-methylcyclopropoxy)-9-((4-methylpyridin-2-yl)methyl)-9H-purine]: the IC50 in the experiment on DLD-1 BRCA2−/− cells (setting [13]) is 100 nM; with DLD-1 cells (setting [14]), > 10000 nM.

In the case of `Cc1ccnc(Cn2c(-c3ccc(OC[C@H](C)O)cc3Cl)nc3c(OC4(C)CC4)ncnc32)c1` [Example 36, (S)-1-(3-Chloro-4-(6-(1-methylcyclopropoxy)-9-((4-methylpyridin-2-yl)methyl)-9H-purin-8-yl)phenoxy)propan-2-ol], the IC50 in the experiment with DLD-1 BRCA2−/− cells (setting [11]) was 251 nM; in the experiment with DLD-1 cells (setting [12]), > 10000 nM.

For `Cc1cnc(Cn2c(-c3cccc(OCCN(C)C)c3Cl)nc3c(OC4(C)CC4)ncnc32)s1` [Example T73, 2-(2-chloro-3-(6-(1-methylcyclopropoxy)-9-((5-methylthiazol-2-yl)methyl)-9H-purin-8-yl)phenoxy)-N,N-dimethylethan-1-amine], the IC50 was 631 nM with DLD-1 BRCA2−/− cells (setting [5]) and > 10000 nM with DLD-1 cells (setting [6]).

For `Cc1cnc(Cn2c(-c3ccc(OCCN(C)C)cc3Cl)nc3c(OC4(C)CC4)ncnc32)s1` [Example T72, 2-(3-chloro-4-(6-(1-methylcyclopropoxy)-9-((5-methylthiazol-2-yl)methyl)-9H-purin-8-yl)phenoxy)-N,N-dimethylethan-1-amine], the IC50 is 200 nM in the experiment with DLD-1 BRCA2−/− cells (setting [5]) and > 10000 nM with DLD-1 cells (setting [6]).

For the compound `CN1CCN(CCOc2cccc(-c3nc4c(OC5(C)CC5)ncnc4n3Cc3ccccc3)c2Cl)CC1` [Example D12, 9-benzyl-8-(2-chloro-3-(2-(4-methylpiperazin-1-yl)ethoxy)phenyl)-6-(1-methylcyclopropoxy)-9H-purine], the IC50 was 50.1 nM with DLD-1 BRCA2−/− cells (setting [1]) and 5010 nM with DLD-1 cells (setting [2]).

On to `Cc1ccnc(Cn2c(-c3ccc(CCN4CC[C@@H](O)C4)cc3Cl)nc3c(OC4(C)CC4)ncnc32)c1` [Example T511, (R)-1-(3-chloro-4-(6-(1-methylcyclopropoxy)-9-((4-methylpyridin-2-yl)methyl)-9H-purin-8-yl)phenethyl)pyrrolidin-3-ol], for which the IC50 was 316 nM in the experiment with DLD-1 BRCA2−/− cells (setting [13]) and > 10000 nM in the experiment on DLD-1 cells (setting [14]).

With `Cc1ccnc(Cn2c(-c3ccc(CC(=O)N4CCCNCC4)cc3Cl)nc3c(OC4(C)CC4)ncnc32)c1` [Example T589, 2-(3-chloro-4-(6-(1-methylcyclopropoxy)-9-((4-methylpyridin-2-yl)methyl)-9H-purin-8-yl)phenyl)-1-(1,4-diazepan-1-yl)ethan-1-one], the IC50 with DLD-1 BRCA2−/− cells (setting [9]) is 1580 nM; in the experiment on DLD-1 cells (setting [10]) it was > 10000 nM.

As for `CC1(Oc2ncnc3c2nc(-c2ccc(OCCN4CCNCC4)cc2Cl)n3Cc2cscn2)CC1` [Example K2, 4-((8-(2-chloro-4-(2-(piperazin-1-yl)ethoxy)phenyl)-6-(1-methylcyclopropoxy)-9H-purin-9-yl)methyl)thiazole], the IC50 in the experiment on DLD-1 BRCA2−/− cells (setting [1]) was 2000 nM; in the experiment with DLD-1 cells (setting [2]) it was 6310 nM.

In the case of `CC1(Oc2ncnc3c2nc(-c2ccc(OCCN4CCNCC4)cc2Cl)n3Cc2cccc(Cl)c2)CC1` [Example J13, 8-(2-chloro-4-(2-(piperazin-1-yl)ethoxy)phenyl)-9-(3-chlorobenzyl)-6-(1-methylcyclopropoxy)-9H-purine], the IC50 in the experiment with DLD-1 BRCA2−/− cells (setting [1]) was 50.1 nM; in the experiment on DLD-1 cells (setting [2]) it was 3160 nM.
